Experimental data taken from ChEMBL document CHEMBL1201862, “PubChem BioAssay data set” (2004).
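Following 48 hours of exposure in 96-well plates, responses at five concentrations were used to interpolate endpoints linearly. GI50: concentration for 50% inhibition of growth.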 Calls of active or inactive are those of the source. No stated cut-off is given here; in the data, active = GI50 up to about 1.1 µM and inactive = higher.

Assays:
Assay in all cases: inhibition of tumour cell growth, NCI panel, 48 h
[1] = system: TK-10
[2] = system: ACHN
[3] = system: HCT-116
[4] = system: LOX IMVI
[5] = system: MOLT-4
[6] = system: NCI-H226
[7] = system: RXF 631
[8] = system: OVCAR-8
[9] = system: SN12C
[10] = system: K562
[11] = system: RXF 393
[12] = system: SNB-19
[13] = system: M19-MEL
[14] = system: SF-295
[15] = system: DMS-273
[16] = system: CAKI-1
[17] = system: OVCAR-5
[18] = system: OVCAR-4
[19] = system: IGROV-1
[20] = system: SK-MEL-2
[21] = system: KM-20L2
[22] = system: SNB-75
[23] = system: U-251
[24] = system: UACC-62
[25] = system: SF-539
[26] = system: HOP-18
[27] = system: EKVX
[28] = system: CCRF-CEM
[29] = system: NCI-H23
[30] = system: SK-OV-3
[31] = system: OVCAR-3
[32] = system: 786-0
[33] = system: M14
[34] = system: KM12
[35] = system: HCC 2998
[36] = system: SF-268
[37] = system: HT-29
[38] = system: A498
[39] = system: HL-60
[40] = system: COLO 205
[41] = system: SW-620
[42] = system: HOP-92
[43] = system: NCI-H460
[44] = system: Malme-3M
[45] = system: SNB-78
[46] = system: SR
[47] = system: SK-MEL-28
[48] = system: HCT-15
[49] = system: DMS-114
[50] = system: DLD-1
[51] = system: UACC-257
[52] = system: LXFL 529
[53] = system: HOP-62
[54] = system: SK-MEL-5
[55] = system: A549
[56] = system: NCI-H522
[57] = system: UO-31
[58] = system: MDA-N
[59] = system: MDA-MB-231
[60] = system: MDA-MB-435
[61] = system: PC-3
[62] = system: BT-549
[63] = system: RPMI-8226
[64] = system: Hs-578T
[65] = system: MCF7
[66] = system: DU-145
[67] = system: T47D

Compound: CN(C)CCNC(=O)c1cccc2ncc(-c3ccccc3)nc12
- GI50 [1]: 6.93 µM (inactive)
- GI50 [2]: 5.35 µM (inactive)
- GI50 [3]: 4.26 µM (inactive)
- GI50 [4]: 7.66 µM (inactive)
- GI50 [5]: 2.52 µM (inactive)
- GI50 [6]: 7.91 µM (inactive)
- GI50 [7]: 9.59 µM (inactive)
- GI50 [8]: 7.52 µM (inactive)
- GI50 [9]: 6.14 µM (inactive)
- GI50 [10]: 9.02 µM (inactive)
- GI50 [11]: 5.86 µM (inactive)
- GI50 [12]: 17.1 µM (inactive)
- GI50 [13]: 14.2 µM (inactive)
- GI50 [14]: 14.2 µM (inactive)
- GI50 [15]: 5.09 µM (inactive)
- GI50 [16]: 6.58 µM (inactive)
- GI50 [17]: 9.04 µM (inactive)
- GI50 [18]: 8.77 µM (inactive)
- GI50 [19]: 20.5 µM (inactive)
- GI50 [20]: 14.6 µM (inactive)
- GI50 [21]: 3.81 µM (inactive)
- GI50 [22]: 17.5 µM (inactive)
- GI50 [23]: 8.26 µM (inactive)
- GI50 [24]: 13.8 µM (inactive)
- GI50 [25]: 4.51 µM (inactive)
- GI50 [26]: 5.85 µM (inactive)
- GI50 [27]: 13.3 µM (inactive)
- GI50 [28]: 8.99 µM (inactive)
- GI50 [29]: 14.6 µM (inactive)
- GI50 [30]: 16.4 µM (inactive)
- GI50 [31]: 19.5 µM (inactive)
- GI50 [32]: 10 µM (inactive)
- GI50 [33]: 13.9 µM (inactive)
- GI50 [34]: 11.8 µM (inactive)
- GI50 [35]: 9.59 µM (inactive)
- GI50 [36]: 10.6 µM (inactive)
- GI50 [37]: 6.17 µM (inactive)
- GI50 [38]: 6.15 µM (inactive)
- GI50 [39]: 14.4 µM (inactive)
- GI50 [40]: 4.11 µM (inactive)
- GI50 [41]: 5.31 µM (inactive)
- GI50 [42]: 18.7 µM (inactive)
- GI50 [43]: 4.41 µM (inactive)
- GI50 [44]: 13 µM (inactive)
- GI50 [45]: 8.89 µM (inactive)
- GI50 [46]: 1.9 µM (inactive)
- GI50 [47]: 18.2 µM (inactive)
- GI50 [48]: 5.37 µM
- GI50 [49]: 12.8 µM (inactive)
- GI50 [50]: 5.45 µM (inactive)
- GI50 [51]: 14.7 µM (inactive)
- GI50 [52]: 6.81 µM (inactive)
- GI50 [53]: 9.25 µM (inactive)
- GI50 [54]: 11.5 µM (inactive)
- GI50 [55]: 6.9 µM (inactive)
- GI50 [56]: 5.78 µM (inactive)
- GI50 [57]: 8.89 µM (inactive)

Compound: N=c1nc(N)c2cc3c(N)nc(=N)c3cc12
- GI50 [1]: 15.3 µM (inactive)
- GI50 [2]: 63.5 µM (inactive)
- GI50 [3]: 4.55 µM (inactive)
- GI50 [4]: 2.49 µM (inactive)
- GI50 [5]: 4.07 µM (inactive)
- GI50 [6]: 13 µM (inactive)
- GI50 [7]: 14.5 µM (inactive)
- GI50 [58]: 2.05 µM (inactive)
- GI50 [59]: 2.69 µM (inactive)
- GI50 [8]: 4.35 µM (inactive)
- GI50 [9]: 5.07 µM (inactive)
- GI50 [10]: 2.2 µM (inactive)
- GI50 [60]: 3.19 µM (inactive)
- GI50 [61]: 36.1 µM (inactive)
- GI50 [11]: 6.32 µM (inactive)
- GI50 [12]: 58.6 µM (inactive)
- GI50 [13]: 1.87 µM (inactive)
- GI50 [14]: 14.9 µM (inactive)
- GI50 [15]: 30.7 µM (inactive)
- GI50 [16]: 8.38 µM (inactive)
- GI50 [17]: 19.1 µM (inactive)
- GI50 [62]: 3.99 µM (inactive)
- GI50 [63]: 3.13 µM (inactive)
- GI50 [18]: 15.4 µM (inactive)
- GI50 [19]: > 100 µM (inactive)
- GI50 [20]: 3.31 µM (inactive)
- GI50 [21]: > 100 µM (inactive)
- GI50 [22]: 8.09 µM (inactive)
- GI50 [23]: 11.5 µM (inactive)
- GI50 [24]: 3.72 µM (inactive)
- GI50 [25]: 4.85 µM (inactive)
- GI50 [26]: 8.97 µM (inactive)
- GI50 [27]: 25.2 µM (inactive)
- GI50 [64]: 36.1 µM (inactive)
- GI50 [28]: 2.28 µM (inactive)
- GI50 [29]: 35.3 µM (inactive)
- GI50 [65]: 33.5 µM (inactive)
- GI50 [66]: 30.5 µM (inactive)
- GI50 [30]: 28.6 µM (inactive)
- GI50 [31]: 27.9 µM (inactive)
- GI50 [32]: 4.86 µM (inactive)
- GI50 [33]: 2.47 µM (inactive)
- GI50 [67]: 8.51 µM (inactive)
- GI50 [34]: 72.9 µM (inactive)
- GI50 [35]: 31.3 µM (inactive)
- GI50 [36]: 2.62 µM (inactive)
- GI50 [37]: 82.2 µM (inactive)
- GI50 [38]: > 9.27 µM (inactive)
- GI50 [39]: 2.02 µM (inactive)
- GI50 [40]: > 91.8 µM (inactive)
- GI50 [41]: 5.27 µM (inactive)
- GI50 [42]: 3.94 µM (inactive)
- GI50 [43]: 22.5 µM (inactive)
- GI50 [44]: 2.95 µM (inactive)
- GI50 [45]: 9.35 µM (inactive)
- GI50 [46]: 3.83 µM (inactive)
- GI50 [47]: 2.45 µM (inactive)
- GI50 [48]: 71.6 µM
- GI50 [49]: 5.74 µM (inactive)
- GI50 [50]: > 73.5 µM (inactive)
- GI50 [51]: 3.37 µM (inactive)
- GI50 [52]: 38.1 µM (inactive)
- GI50 [53]: 12.4 µM (inactive)
- GI50 [54]: 60.8 µM (inactive)
- GI50 [55]: > 100 µM (inactive)
- GI50 [56]: 16 µM (inactive)
- GI50 [57]: 7.5 µM (inactive)
